This note sets out measurements from patent publication US11446298B2, “Pyrimidine derivatives” (Idorsia Pharmaceuticals Ltd, priority 2017, dated 2022).

Common to all, as to type: cell-based
One experiment has as its target T1, PTGER4 (EP4) (Homo sapiens, UniProt P35408).
T1 construct: host or cells: HEK 293 (PathHunter, stably transfected)
Briefly: hEP4 b-Arrestin Assay (PathHunter HEK 293 PTGER4 b-arrestin cells, PGE2 20 nM). The settings on record: antagonistic activity, beta-arrestin assay, HEK 293 PTGER4 cells, PGE2 20 nM (EC80); read-out: hEP4 b-arr IC50. As to the method: The antagonistic activities of the compounds of formula (I) on the EP2 and EP4 receptors are also determined in accordance with the following experimental method.
The assay is using the PathHunter™ HEK 293 PTGER2 and PTGER4 b-arrestin cell lines from DiscoverX. The system is based on the Enzyme Fragment Complementation Technology. Two complementing fragments of the b-galactosidase enzyme are expressed within stably transfected cells. The larger portion of b-gal, termed EA for Enzyme Acceptor, is fused to the C-terminus of b-arrestin 2. The smaller fragment, termed ProLink™ tag, is fused to PTGER2 (EP2) or PTRGER4 (EP4) at the C-terminus. Upon activation, b-arrestin is recruited which forces the interaction of ProLink and EA, allowing complementation of the two fragments of b-gal and the formation of a functional enzyme which is capable of hydrolysing the substrate and generating a chemiluminescent signal.
The HEK 293 PTGER4 b-arrestin cells (DiscoverX 93-030-4C1) are detached from culture dishes with a cell dissociation buffer (Invitrogen, 13151-014), and collected in growing medium (GM: DMEM+Glutamax-I (Invitrogen 32430)/10% FCS, 1% Penicilin/streptomycin). 5000 cells per well of a 384 well plate (white with white bottom Greiner 781080) are seeded in 20 ul per well of GM. Plate is incubated at 37° C., 5% CO2 for 24 hours.
Stock solutions of test compounds are made at a concentration of 10 mM in DMSO, and serially diluted in DMSO to concentrations required for inhibition dose response curves (tested concentration range 10 μM-2 nM or 1 μM-0.2 nM).
PGE2 (Cayman 14010, stock solution: 100 μM in DMSO) is used as agonist at 20 nM final concentration, corresponding to EC80.
Five microliters of diluted compounds are transferred into the assay plate. Plate is pre-incubated 15 minutes at 37° C. Then five microliters of PGE2 (final conc. 20 nM) are transferred into the assay plate. Plate is incubated 120 minutes at 37° C.
PathHunter Glo Detection Kit components are thawed and mix according to manufacturer's instructions: 1 part Galacton Star Substrate with 5 parts Emerald II™ Solution, and 19 parts of PathHunter Cell Assay Buffer, respectively. Twelve μl of reagent are transferred to the assay plate and incubate for 1 hour at room temperature in the dark. Luminescence counts are read on a BMG Fluostar Optima reader according to manufacturer's instructions.
For each compound concentration calculate of the percentage of activity compared to DMSO control value as average ±STDEV. (each concentration is measured in duplicate)
IC50 values and curves are generated with XLfit software (IDBS) using Dose-Response One Site model 203. When compounds were measured multiple times, mean values are given.

The target of a further experiment is T2, PTGER2 (EP2) (Homo sapiens, UniProt P43116).
T2 construct: host or cells: HEK 293 (PathHunter, stably transfected)
The experiment in a line: hEP2 b-Arrestin Assay (PathHunter HEK 293 PTGER2 b-arrestin cells, PGE2 5 μM). The settings on record: antagonistic activity, beta-arrestin assay, HEK 293 PTGER2 cells, PGE2 5 μM (EC80); read-out: hEP2 b-arr IC50. In outline:
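PathHunter enzyme-fragment complementation in HEK 293 cells: compounds (10 μM-2 nM or 1 μM-0.2 nM) pre-incubated 15 min at 37 °C, then 5 μM PGE2 (EC80) for 120 min at 37 °C. Chemiluminescence read after 1 h detection; IC50 from duplicate dose-response fits, means of repeats.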

Another experiment concerns the target T3, EP4 (Homo sapiens, UniProt P35408).
T3 construct: BT549 breast cancer cells, express high endogenous EP4 levels and very low EP2 levels; host or cells: BT549 breast cancer cells
Briefly: hEP4 cAMP Assay (BT549 breast cancer cells, HTRF cAMP, PGE2 6 nM). The conditions noted are these: antagonistic activity, PGE2 6 nM (EC80). In outline:
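BT549 cells (endogenous EP4, very low EP2) in HBSS/20 mM HEPES/0.2% BSA/2 mM IBMX, pre-incubated 45 min RT with compound, then stimulated 30 min RT with PGE2 6 nM (EC80). cAMP read by HTRF competitive immunoassay (665/620 nm), converted via calibrator to % of DMSO control; IC50 from duplicate dose-response curves.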

The target of a further experiment is T4, EP2 (Homo sapiens, UniProt P43116).
T4 construct: SF295 glioblastoma cells express high endogenous EP2 and no EP4; host or cells: SF295 glioblastoma cells
The experiment in a line: hEP2 cAMP Assay (SF295 glioblastoma cells, HTRF cAMP, PGE2 75 nM). The settings on record: antagonistic activity, PGE2 75 nM (EC80). Put shortly: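 IC50 values derive from duplicate-point curves of percent cAMP relative to DMSO, read by HTRF (665/620 nm) against a cAMP calibrator. Compounds (30 μM to 0.01 nM ranges) were given 45 min at room temperature before 30 min with 75 nM PGE2, in EP2-only SF295 cells with 2 mM IBMX.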
A general note: Time-resolved FRET reads energy transfer from a long-lived donor to a nearby acceptor.

T2 sequence (P43116 whole entry): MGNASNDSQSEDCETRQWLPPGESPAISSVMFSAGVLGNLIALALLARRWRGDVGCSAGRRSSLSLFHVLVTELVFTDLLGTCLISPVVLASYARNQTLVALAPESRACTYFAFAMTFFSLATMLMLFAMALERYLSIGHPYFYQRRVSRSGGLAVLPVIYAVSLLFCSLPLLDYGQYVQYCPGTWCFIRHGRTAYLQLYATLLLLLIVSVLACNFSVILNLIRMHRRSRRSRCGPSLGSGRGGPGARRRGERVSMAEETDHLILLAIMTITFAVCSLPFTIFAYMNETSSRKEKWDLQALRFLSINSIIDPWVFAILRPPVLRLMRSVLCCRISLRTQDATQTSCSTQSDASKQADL
T4 sequence (P43116 whole entry): as above
T3 sequence (P35408 whole entry): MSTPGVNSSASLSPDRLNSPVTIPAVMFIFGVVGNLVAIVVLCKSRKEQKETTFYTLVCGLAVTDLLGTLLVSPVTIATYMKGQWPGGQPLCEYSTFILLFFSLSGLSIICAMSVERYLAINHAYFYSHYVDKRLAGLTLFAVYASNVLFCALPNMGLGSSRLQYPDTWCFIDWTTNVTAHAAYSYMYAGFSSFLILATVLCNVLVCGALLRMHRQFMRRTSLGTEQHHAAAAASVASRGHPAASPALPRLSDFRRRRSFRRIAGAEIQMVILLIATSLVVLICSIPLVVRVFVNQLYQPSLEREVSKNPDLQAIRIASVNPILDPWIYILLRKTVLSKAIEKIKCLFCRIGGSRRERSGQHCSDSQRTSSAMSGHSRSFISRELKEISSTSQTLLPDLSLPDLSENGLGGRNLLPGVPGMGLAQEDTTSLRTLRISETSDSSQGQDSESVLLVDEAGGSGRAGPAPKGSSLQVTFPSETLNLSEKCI
T1 sequence (P35408 whole entry): as above

Usually IC50 stands for the point on the concentration scale where inhibition reaches its midpoint. Consider `CCOc1cc(-c2cc(NCCc3c(OC)ccc4c3ccn4C)ncn2)ccc1C(=O)O` [Example 186, 2-Ethoxy-4-{6-[2-(5-methoxy-1-methyl-1H-indol-4-yl)-ethylamino]-pyrimidin-4-yl}-benzoic acid], for which the IC50 turned out to be 500 nM at PTGER4 (EP4) and 9 nM at PTGER2 (EP2).

Turning to `COc1ccc2cc(F)cc(CCNc3cc(-c4cc(C(F)(F)F)c(C(=O)O)s4)ncn3)c2n1` [Example 152, 5-{6-[2-(6-Fluoro-2-methoxy-quinolin-8-yl)-ethylamino]-pyrimidin-4-yl}-3-trifluoromethyl-thiophene-2-carboxylic acid], the IC50 came out at 107 nM on PTGER4 (EP4), 197 nM at EP4 and 506 nM against EP2.

Regarding `CCOc1cc(-c2cc(NCCc3ccc(Br)c4ccn(C)c34)ncn2)ccc1CC(=O)O` [Example 161, (4-{6-[2-(4-Bromo-1-methyl-1H-indol-7-yl)-ethylamino]-pyrimidin-4-yl}-2-ethoxy-phenyl)-acetic acid], the IC50 at PTGER4 (EP4) stood at 363 nM; at PTGER2 (EP2) it was 628 nM.

Consider `CCOc1cc(-c2cc(NCCc3c(OC)ccc4ccccc34)ncn2)ccc1-c1noc(=S)[nH]1` [Example 189, 3-(2-Ethoxy-4-{6-[2-(2-methoxy-naphthalen-1-yl)-ethylamino]-pyrimidin-4-yl}-phenyl)-[1,2,4]-oxadiazole-5(4H)-thione], for which the IC50 at PTGER4 (EP4) is 16 nM; at PTGER2 (EP2), 5 nM.

As to `CCOc1cc(-c2cc(NCCc3ccc(C(F)F)c4ccccc34)ncn2)ccc1C(=O)O` [Example 71, 4-{6-[2-(4-Difluoromethyl-naphthalen-1-yl)-ethylamino]-pyrimidin-4-yl}-2-ethoxy-benzoic acid], the results for the IC50 at PTGER4 (EP4), at EP4 and against EP2 were 91 nM, 128 nM and 374 nM, respectively.

As to `Cc1c(C)n(C)c2c(CCNc3cc(-c4ccc(C(=O)O)c(OC5CCC5)c4)ncn3)cccc12` [Example 28, 2-Cyclobutoxy-4-{6-[2-(1,2,3-trimethyl-1H-indol-7-yl)-ethylamino]-pyrimidin-4-yl}-benzoic acid], the IC50 turned out to be 1400 nM at PTGER4 (EP4), 988 nM against EP4 and 684 nM at EP2.

For the compound `CCOc1cc(-c2cc(NCCc3ccc(C(F)F)c4ccccc34)ncn2)ccc1OCC(=O)O` [Example 73, (4-{6-[2-(4-Difluoromethyl-naphthalen-1-yl)-ethylamino]-pyrimidin-4-yl}-2-ethoxy-phenoxy)-acetic acid], the IC50 on PTGER4 (EP4) turned out to be 34 nM; at EP4 it was 102 nM; on EP2 it was 465 nM.

Take `CCOc1cc(-c2cc(NCCc3c(OC)ccc4c(OC)cccc34)ncn2)sc1C(=O)O` [Example 53, 5-{6-[2-(2,5-Dimethoxy-naphthalen-1-yl)-ethylamino]-pyrimidin-4-yl}-3-ethoxy-thiophene-2-carboxylic acid]: the IC50 is 5 nM on PTGER4 (EP4), 17 nM against EP4 and 305 nM against EP2.

Take `COc1ccc2ccccc2c1CCNc1cc(-c2cc3c(C(=O)O)cccc3[nH]2)ncn1` [Example 129, 2-{6-[2-(2-Methoxy-naphthalen-1-yl)-ethylamino]-pyrimidin-4-yl}-1H-indole-4-carboxylic acid]: the 50% inhibitory concentration (IC50) on EP4 turned out to be 289 nM; at EP2 it was 15 nM; at PTGER2 (EP2), 87 nM.

On to `CCOc1cc(-c2cc(NCCc3c(F)ccc4ccccc34)ncn2)ccc1CC(=O)O` [Example 97, (2-Ethoxy-4-{6-[2-(2-fluoro-naphthalen-1-yl)-ethylamino]-pyrimidin-4-yl}-phenyl)-acetic acid], for which the IC50 amounted to 355 nM against EP4, 218 nM at EP2 and 132 nM on PTGER2 (EP2).

Consider `CCOc1cc(-c2cc(NCCc3cccc4c3ccn4C)ncn2)ccc1OCC(=O)O` [Example 49, (2-Ethoxy-4-{6-[2-(1-methyl-1H-indol-4-yl)-ethylamino]-pyrimidin-4-yl}-phenoxy)-acetic acid], for which the IC50 amounted to 458 nM on EP4, 160 nM against EP2 and 108 nM at PTGER2 (EP2).

As to `CCOc1cc(-c2cc(NCCc3ccc(C)c4ccccc34)ncn2)ccc1OCC(=O)O` [Example 76, (2-Ethoxy-4-{6-[2-(4-methyl-naphthalen-1-yl)-ethylamino]-pyrimidin-4-yl}-phenoxy)-acetic acid], the IC50 amounted to 66 nM at PTGER4 (EP4), 116 nM against EP4 and 259 nM at EP2.

For `COc1ccc2ccccc2c1CCNc1cc(-c2cc3ccc(C(=O)O)cc3[nH]2)ncn1` [Example 127, 2-{6-[2-(2-Methoxy-naphthalen-1-yl)-ethylamino]-pyrimidin-4-yl}-1H-indole-6-carboxylic acid], the IC50 amounted to 416 nM on EP4, 20 nM at EP2 and 9 nM at PTGER2 (EP2).

In the case of `CCCCOc1cc(-c2cc(NCCc3c(OC)ccc4ccccc34)ncn2)cc(F)c1C(=O)O` [Example 124, 2-Butoxy-6-fluoro-4-{6-[2-(2-methoxy-naphthalen-1-yl)-ethylamino]-pyrimidin-4-yl}-benzoic acid], the figures for the half-inhibitory concentration (IC50) against EP4, against EP2 and on PTGER2 (EP2) were 446 nM, 100 nM and 35 nM, respectively.

In the case of `CCOc1cc(-c2cc(NCCc3ccc(C)c4ccccc34)ncn2)ccc1CC(=O)O` [Example 99, (2-Ethoxy-4-{6-[2-(4-methyl-naphthalen-1-yl)-ethylamino]-pyrimidin-4-yl}-phenyl)-acetic acid], the values for the half-maximal inhibitory concentration (IC50) on PTGER4 (EP4), at EP4 and at EP2 were 177 nM, 225 nM and 765 nM, respectively.

Turning to `COc1ccc2ccccc2c1CCNc1cc(-c2cc3cc(C(=O)O)ccc3[nH]2)ncn1` [Example 130, 2-{6-[2-(2-Methoxy-naphthalen-1-yl)-ethylamino]-pyrimidin-4-yl}-1H-indole-5-carboxylic acid], the IC50 against EP4 came out at 546 nM; at EP2, 27 nM; at PTGER2 (EP2), 13 nM.

With `O=C(O)c1ccc(-c2cc(NCCc3cccc4ccccc34)ncn2)cc1OC1CCC1` [Example 8, 2-Cyclobutoxy-4-[6-(2-naphthalen-1-yl-ethylamino)-pyrimidin-4-yl]-benzoic acid], the IC50 stood at 568 nM on EP4, 133 nM against EP2 and 71 nM on PTGER2 (EP2).

For `COc1ccc2ncccc2c1CCNc1cc(-c2ccc3c(=O)[nH]n(C)c3c2)ncn1` [Example 117, 6-{6-[2-(6-Methoxy-quinolin-5-yl)-ethylamino]-pyrimidin-4-yl}-1-methyl-1,2-dihydro-indazol-3-one], the IC50 at PTGER4 (EP4) was 686 nM; on EP4, 163 nM; against EP2 it was 564 nM.

With `CCOc1cc(-c2cc(NCCc3c(F)ccc4ccccc34)ncn2)ccc1C(=O)O` [Example 93, 2-Ethoxy-4-{6-[2-(2-fluoro-naphthalen-1-yl)-ethylamino]-pyrimidin-4-yl}-benzoic acid], the IC50 was found to be 427 nM against EP4, 36 nM against EP2 and 36 nM at PTGER2 (EP2).
